Targets include Carbonic anhydrase 2 (Homo sapiens, UniProt P00918); Carbonic anhydrase 4 (Homo sapiens, UniProt P22748); Carbonic anhydrase 6 (Homo sapiens, UniProt P23280); Carbonic anhydrase 1 (Homo sapiens, UniProt P00915).
Experiment in all cases: Esterase Activity Assay

Sequence of Carbonic anhydrase 4 (P22748 whole entry): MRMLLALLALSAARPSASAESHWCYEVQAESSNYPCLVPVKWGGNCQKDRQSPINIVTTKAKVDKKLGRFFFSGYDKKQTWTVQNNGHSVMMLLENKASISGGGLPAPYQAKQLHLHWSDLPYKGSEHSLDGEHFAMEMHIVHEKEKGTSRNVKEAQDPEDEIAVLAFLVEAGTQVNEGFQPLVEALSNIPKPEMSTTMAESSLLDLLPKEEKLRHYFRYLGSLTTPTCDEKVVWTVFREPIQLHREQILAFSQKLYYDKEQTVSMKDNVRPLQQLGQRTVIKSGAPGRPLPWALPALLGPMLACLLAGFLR
Sequence of Carbonic anhydrase 1 (P00915 whole entry): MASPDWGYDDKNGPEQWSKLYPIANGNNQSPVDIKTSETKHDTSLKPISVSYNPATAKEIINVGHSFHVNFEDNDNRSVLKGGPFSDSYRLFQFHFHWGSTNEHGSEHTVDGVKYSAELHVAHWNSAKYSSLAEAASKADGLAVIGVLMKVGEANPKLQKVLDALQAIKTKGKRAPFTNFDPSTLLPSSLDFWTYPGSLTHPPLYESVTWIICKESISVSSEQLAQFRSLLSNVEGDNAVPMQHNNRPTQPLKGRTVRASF
Sequence of Carbonic anhydrase 6 (P23280 whole entry): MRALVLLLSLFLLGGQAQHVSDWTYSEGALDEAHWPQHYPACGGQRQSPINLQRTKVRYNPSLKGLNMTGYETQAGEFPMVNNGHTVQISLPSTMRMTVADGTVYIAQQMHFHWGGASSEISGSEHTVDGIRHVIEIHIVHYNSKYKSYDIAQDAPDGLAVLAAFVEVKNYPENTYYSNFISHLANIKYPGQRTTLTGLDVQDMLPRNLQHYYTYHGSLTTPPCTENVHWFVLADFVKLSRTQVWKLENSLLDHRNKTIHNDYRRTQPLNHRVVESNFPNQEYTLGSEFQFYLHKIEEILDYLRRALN

`Oc1ccccc1`: the Ki came out at 5.6 µM at Carbonic anhydrase 2 and 9.7 µM on Carbonic anhydrase 4.

Regarding `Oc1cccc(O)c1O`, the Ki on Carbonic anhydrase 2 was determined as 0.52 µM; on Carbonic anhydrase 6 it was 6.83 µM; at Carbonic anhydrase 4 it was 0.49 µM.

`CS(=O)(=O)Oc1ccccc1OS(C)(=O)=O` [1,2-Phenylenedimethanesulfonate (13)]: the inhibition constant Ki on Carbonic anhydrase 2 is 28.5 µM; on Carbonic anhydrase 6, 313 µM; at Carbonic anhydrase 4, 41.6 µM; at Carbonic anhydrase 1, 196 µM.

For `CS(=O)(=O)Oc1ccc(OS(C)(=O)=O)cc1` [1,4-Phenylene dimethanesulfonate (6)], the Ki at Carbonic anhydrase 2 came to 4.23 µM; on Carbonic anhydrase 6 it was 28.4 µM; on Carbonic anhydrase 4, 9.12 µM; on Carbonic anhydrase 1, 22.1 µM.

As to `COc1ccccc1O` [1-Hydroxy-2-methoxybenzene], the Ki on Carbonic anhydrase 2 was determined as 2.98 µM; at Carbonic anhydrase 6, 217 µM; on Carbonic anhydrase 4 it was 3.56 µM.

For `COc1cc(C=O)ccc1OS(C)(=O)=O` [4-Formyl-2-methoxyphenyl methanesulfonate (15)], the Ki on Carbonic anhydrase 2 came out at 6.45 µM; at Carbonic anhydrase 6, 12.1 µM; on Carbonic anhydrase 4 it was 8.14 µM; on Carbonic anhydrase 1 it was 79.1 µM.

Take `Oc1ccc(-c2ccccc2)cc1` [4-Hydroxybiphenyl]: the inhibition constant Ki came to 7.41 µM at Carbonic anhydrase 2, 85 µM on Carbonic anhydrase 6, 12.3 µM at Carbonic anhydrase 4 and 19.5 µM at Carbonic anhydrase 1.

As to `CS(=O)(=O)Oc1cccc(OS(C)(=O)=O)c1OS(C)(=O)=O` [Benzene-1,2,3-triyltrimethanesulfonate (11)], the Ki at Carbonic anhydrase 2 is 35.4 µM; at Carbonic anhydrase 6, 458 µM; on Carbonic anhydrase 4, 45.1 µM; at Carbonic anhydrase 1, 478 µM.

Consider `CS(=O)(=O)Oc1ccc(-c2ccccc2)cc1` [Biphenyl-4-ylmethanesulfonate (5)], for which the Ki turned out to be 12.2 µM on Carbonic anhydrase 2, 162 µM at Carbonic anhydrase 6, 26.5 µM on Carbonic anhydrase 4 and 48.5 µM on Carbonic anhydrase 1.

In the case of `CS(=O)(=O)Oc1ccccc1` [Phenylmethanesulfonate (4)], the Ki was found to be 8.7 µM on Carbonic anhydrase 2, 105 µM on Carbonic anhydrase 6, 15.4 µM at Carbonic anhydrase 4 and 27.4 µM at Carbonic anhydrase 1.

What is called Ki is the dissociation constant of the complex between target and ligand, obtained from inhibition or displacement. Lower therefore signals higher affinity.

The record behind these values is BindingDB's records for doi:10.3109/14756366.2011.637202 (Agri Ibrahim Cecen University, 2012).
